Test results from patent US20260083865A1, “PROSTATE SPECIFIC MEMBRANE ANTIGEN (PSMA) LIGANDS AND USE THEREOF” (priority 2022, published 2026).
Where two headings read alike, the source gives them in different places. Numbered stars: 1 amine (or outer) side, 2 acyl side, 3 side chain; on linkers, the order of the positions; unused ones are H or OH. Bridge positions count the residues as written; N and C are the ends. Square brackets hold non-standard residues; d marks the D form. Peptide text beside a SMILES is read from it. * marks the point of attachment. ξ: configuration not given here. TtdsdLys(DOTA)NH2 = NC(=O)[C@@H](CCCCNC(=O)CN1CCN(CC(=O)O)CCN(CC(=O)O)CCN(CC(=O)O)CC1)NC(=O)CCC(=O)NCCCOCCOCCOCCCN*; X7 = O=C(O)CN1CCN(CC(=O)O)CCN(CC(=O)NC2CCN(CC(=O)*)CC2)CCN(CC(=O)O)CC1; X3 = O=C(O)CN1CCN(CC(=O)O)CCN(CC(=O)NCCCOCCOCCOCCCN*)CCN(CC(=O)O)CC1; DOTA = O=C(O)CN1CCN(CC(=O)O)CCN(CC(=O)*)CCN(CC(=O)O)CC1; Arg(Me) = CNC(=N)NCCC[C@H](N)C(=O)O; Ethylenediamine = C(CN[*:2])N[*:1]; X1 = O=C(CC1CCN([*:1])CC1)[*:2]; Lys(Me) = CNCCCC[C@H](N)C(=O)O; Suc = O=C(CCC(=O)[*:2])[*:1]; Tle = CC(C)(C)[C@H](N)C(=O)O; Hexanoyl = CCCCCC(=O)*; ξL = CC(C)CC(N)C(=O)O; Aib = CC(C)(N)C(=O)O; βAla = NCCC(=O)O; Sar = CNCC(=O)O

How the values were obtained:
[1] = biological target: T1, Fc-fusion protein of human PSMA (hPSMA-Fc) (Homo sapiens, UniProt Q04609); assay: Surface plasmon resonance assay (Biacore T200, single cycle kinetic); assay type: binding; settings: read-out: pKD CAT (converted)
T1 construct: purchased Acro Biosystems PSA-H5264
Summary of the method: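 hPSMA-Fc was captured (~1000 RU) on an Fc-binding-peptide CM5 chip, and compounds were run in single cycle kinetic mode at 25° C in HBST with 0.1% DMSO. Double-blank-corrected sensorgrams were fitted to a 1:1 Langmuir model to give KD, reported as pKD.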

[2] = biological target: T2, PSMA-expressing C4-2 cells (Homo sapiens, UniProt Q04609); assay: FACS binding assay (competition with 50 nM PSM-0183); settings: read-out: pIC50 [C4-2] CAT (converted)
T2 construct: PSMA-expressing C4-2 cells (ATCC, Cat. No. CRL-3314) were cultured in RPMI-1640; host or cells: C4-2 cells
Summary of the method: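 C4-2 cells were incubated 1 h at 4 °C with 50 nM AF488-labelled peptide PSM-0183 plus increasing test compound concentrations, then washed twice in ice-cold buffer. Median fluorescence in the AF488 channel was read by flow cytometry. IC50/pIC50 was derived by 4PL fitting of MFI versus concentration.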

[3] = pKD category for PSMA SPR activity assay, hPSMA-Fc, 25° C.
[4] = pIC50 category of FACS binding, C4-2 cells
[5] = FACS binding, C4-2 cells, category

T2 sequence (Q04609 whole entry): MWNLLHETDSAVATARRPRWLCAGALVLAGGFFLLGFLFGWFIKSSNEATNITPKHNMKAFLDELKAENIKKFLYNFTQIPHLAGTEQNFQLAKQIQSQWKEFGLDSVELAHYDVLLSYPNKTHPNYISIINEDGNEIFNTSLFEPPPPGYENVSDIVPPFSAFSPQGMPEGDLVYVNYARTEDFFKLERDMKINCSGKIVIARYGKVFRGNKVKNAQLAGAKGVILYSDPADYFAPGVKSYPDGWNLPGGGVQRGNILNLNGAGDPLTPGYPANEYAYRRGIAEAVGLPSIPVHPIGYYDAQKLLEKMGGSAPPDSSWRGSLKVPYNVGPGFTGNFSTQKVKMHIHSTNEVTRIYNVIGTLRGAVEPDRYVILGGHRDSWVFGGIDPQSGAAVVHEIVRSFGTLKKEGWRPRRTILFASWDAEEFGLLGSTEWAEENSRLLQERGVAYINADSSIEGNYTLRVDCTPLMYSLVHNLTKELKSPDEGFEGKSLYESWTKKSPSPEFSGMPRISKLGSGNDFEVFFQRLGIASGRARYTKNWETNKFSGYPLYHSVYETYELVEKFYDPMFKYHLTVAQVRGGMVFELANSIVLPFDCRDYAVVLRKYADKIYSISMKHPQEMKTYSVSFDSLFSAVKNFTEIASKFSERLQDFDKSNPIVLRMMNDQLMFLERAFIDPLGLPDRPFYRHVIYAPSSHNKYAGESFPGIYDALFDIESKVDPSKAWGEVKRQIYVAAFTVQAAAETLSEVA
T1 sequence (Q04609 44-750 limits assumed): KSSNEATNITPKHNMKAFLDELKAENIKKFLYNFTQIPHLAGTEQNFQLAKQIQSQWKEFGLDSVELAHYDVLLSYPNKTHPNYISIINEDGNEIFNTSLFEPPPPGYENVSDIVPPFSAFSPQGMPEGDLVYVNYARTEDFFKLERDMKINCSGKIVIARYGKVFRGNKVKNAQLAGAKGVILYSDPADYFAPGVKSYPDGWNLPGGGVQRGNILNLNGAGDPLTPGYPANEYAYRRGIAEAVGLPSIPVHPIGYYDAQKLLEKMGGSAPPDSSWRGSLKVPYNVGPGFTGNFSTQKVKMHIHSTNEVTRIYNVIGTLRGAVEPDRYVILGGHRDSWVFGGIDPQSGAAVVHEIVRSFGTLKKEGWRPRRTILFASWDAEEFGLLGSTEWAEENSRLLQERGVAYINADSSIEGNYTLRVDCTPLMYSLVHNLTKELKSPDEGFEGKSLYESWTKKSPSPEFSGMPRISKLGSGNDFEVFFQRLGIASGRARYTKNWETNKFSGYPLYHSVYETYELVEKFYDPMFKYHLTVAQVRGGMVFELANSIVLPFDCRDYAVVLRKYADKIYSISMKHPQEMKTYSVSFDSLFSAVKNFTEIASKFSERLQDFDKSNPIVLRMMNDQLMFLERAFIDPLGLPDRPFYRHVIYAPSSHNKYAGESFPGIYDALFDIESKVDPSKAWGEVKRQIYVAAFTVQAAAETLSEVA

SMILES | Kd [1, 3] [nM] | IC50 [2, 4] [nM] | Kd ([1]; PSMA SPR assay, category) [nM] | IC50 [2, 5] [nM] | other results
CC(=O)N[C@H](C(=O)NC(C)(C)C(=O)N[C@@H](Cc1ccccc1)C(=O)N[C@H]1CSSC[C@@H](C(=O)N[C@H](C(=O)N[C@H](C(N)=O)[C@@H](C)O)C(C)(C)C)NC(=O)[C@H](CC(N)=O)NC(=O)[C@H](CCCCNC(=O)CN2CCC(NC(=O)CN3CCN(CC(=O)O)CCN(CC(=O)O)CCN(CC(=O)O)CC3)CC2)NC(=O)[C@H](CCCNC(=N)N)NC(=O)[C@H](CCCCN)NC1=O)[C@@H](C)O [PSM-0464, Ac-Thr-Aib-Phe-[Cys-Lys-Arg-Lys(DOTA-APAc)-Asn-Cys]-Tle-Thr-NH2] (Ac-T[Aib]FCKRK(X7)NC[Tle]T-NH2; disulfide 4-9) | < 12.6 | < 200 |  |  | 
CNCCCC[C@@H]1NC(=O)[C@@H](NC(=O)[C@H](Cc2ccccc2)NC(=O)C(C)(C)NC(=O)[C@@H](NC(=O)CC2CCN(C(=O)CN3CCN(CC(=O)O)CCN(CC(=O)O)CCN(CC(=O)O)CC3)CC2)[C@@H](C)O)CSSC[C@@H](C(=O)N[C@H](C(=O)NCCN)C(C)(C)C)NC(=O)[C@H](CC(N)=O)NC(=O)C(C)(C)NC(=O)[C@H](CCCNC(=N)NC)NC1=O [PSM-605] ({DOTA}-[X1]T[Aib]FC[Lys(Me)][Arg(Me)][Aib]NC[Tle]-Ethylenediamine; disulfide 5-10) |  |  | < 12.6 | < 200 | 
CC(=O)N[C@H](C(=O)NC(C)(C)C(=O)N[C@@H](Cc1ccccc1)C(=O)N[C@H]1CSSC[C@@H](C(=O)N[C@H](C(=O)N[C@H](C(N)=O)[C@@H](C)O)C(C)(C)C)NC(=O)[C@H](CC(N)=O)NC(=O)CN(C)C(=O)[C@H](CCCNC(=N)N)NC(=O)[C@H](CCCCN)NC1=O)[C@@H](C)O [PSM-0232, Ac-Thr-Aib-Phe-[Cys-Lys-Arg-Nmg-Asn-Cys]-Tle-Thr-NH2] (Ac-T[Aib]FCKR[Sar]NC[Tle]T-NH2; disulfide 4-9) |  |  |  |  | Kd ([1]; SPR, hPSMA-Fc, single cycle kinetic, 25° C., category): < 12.6 nM; IC50 ([2]; FACS binding, C4-2 cells, competition with 50 nM PSM-0183, category): < 200 nM
C[C@@H](O)[C@H](NC(=O)[C@@H](NC(=O)[C@@H]1CSSC[C@H](NC(=O)[C@H](Cc2ccccc2)NC(=O)C(C)(C)NC(=O)CCNC(=O)CN2CCN(CC(=O)O)CCN(CC(=O)O)CCN(CC(=O)O)CC2)C(=O)N[C@@H](CCCCN)C(=O)N[C@@H](CCCNC(=N)N)C(=O)NC(C)(C)C(=O)N[C@@H](CC(N)=O)C(=O)N1)C(C)(C)C)C(N)=O [PSM-0437, DOTA-Bal-Aib-Phe-[Cys-Lys-Arg-Aib-Asn-Cys]-Tle-Thr-NH2] ({DOTA-βAla}-[Aib]FCKR[Aib]NC[Tle]T-NH2; disulfide 3-8) | 12.6 to 126 | < 200 |  |  | 
CC(C)CC(NC(=O)[C@@H]1CSSC[C@H](NC(=O)[C@H](Cc2ccccc2)NC(=O)[C@H](C)NC(=O)[C@@H](NC(=O)CCC(=O)NCCCOCCOCCOCCCNC(=O)CN2CCN(CC(=O)O)CCN(CC(=O)O)CCN(CC(=O)O)CC2)[C@@H](C)O)C(=O)N[C@@H](CCCCN)C(=O)N[C@@H](CCCNC(=N)N)C(=O)N[C@@H](C)C(=O)N[C@@H](CC(N)=O)C(=O)N1)C(=O)N[C@H](C(N)=O)[C@@H](C)O (stereo partly drawn) [PSM-0305, DOTA-Ttds-Thr-Ala-Phe-[Cys-Lys-Arg-Ala-Asn-Cys]-Lou-Thr-NH2] ({X3-Suc}-TAFCKRANC[ξL]T-NH2; disulfide 4-9) |  |  |  |  | Kd ([1]; PSMA SPR assay, hPSMA-Fc, 25° C., pKD category): 126 to 501 nM; IC50 ([2]; FACS binding, PSMA-expressing C4-2 cells, pIC50 category): 200 to 1260 nM
CCCCCC(=O)N[C@H](C(=O)NC(C)(C)C(=O)N[C@@H](Cc1ccccc1)C(=O)N[C@H]1CSSC[C@@H](C(=O)N[C@H](C(=O)N[C@H](C(=O)NCCCOCCOCCOCCCNC(=O)CCC(=O)N[C@H](CCCCNC(=O)CN2CCN(CC(=O)O)CCN(CC(=O)O)CCN(CC(=O)O)CC2)C(N)=O)[C@@H](C)O)C(C)(C)C)NC(=O)[C@H](CC(N)=O)NC(=O)C(C)(C)NC(=O)[C@H](CCCNC(=N)N)NC(=O)[C@H](CCCCN)NC1=O)[C@@H](C)O [PSM-0576, Hex-Thr-Aib-Phe-[Cys-Lys-Arg-Aib-Asn-Cys]-Tle-Thr-Ttds-lys(DOTA)-NH2] (Hexanoyl-T[Aib]FCKR[Aib]NC[Tle]T-{TtdsdLys(DOTA)NH2}; disulfide 4-9) |  |  | < 12.6 | < 200 | 
